The results in this text go back to patent US20160045503A1, “FORMULATIONS CONTAINING REVERSIBLE COVALENT COMPOUNDS” (PRINCIPIA BIOPHARMA INC., priority 2012, published 2016).

In one data set the target is human recombinant Btk (Homo sapiens, UniProt Q06187). Description: Btk Enzymatic Activity Assay (Caliper-based kinase assay). The class given is biochemical. The note with it: human recombinant Btk 2 nM, ATP 40 uM, peptide substrate 1 uM, room temperature, 3 h.
Data set [1] is described as follows: Determination of Bioavailability, stomach (oral gavage) v. intraduodenal administration. The class given is in vivo, Rats. The note with it: rat; for % increase: ID versus PO; for AUC / Cmax / bioavailability: plasma. How it is done: Rats with surgically implanted intra-duodenal catheters were obtained commercially. Rats were dosed with solution or suspension of (S)-2-(2-((4-amino-3-(2-fluoro-4-phenoxyphenyl)-1H-pyrazolo[3,4-d]pyrimidin-1-yl)methyl)pyrrolidine-1-carbonyl)-4-methyl-4-morpholinopent-2-enenitrile; via bolus injection: oral gavage was done to measure exposure after oral dosing, or dosing via administration through the intra-duodenal catheter to measure exposure bypassing the stomach. […] Blood was withdrawn at time points out to 24 hours and compound quantitated via LC/MS/MS to obtain plasma concentrations. PK parameters were calculated via commercially available software and measures of exposure were used to assess differences in dosing routes. The table below summarizes exposures as measured by area under the curve (AUC), concentration at its maximum (Cmax), and bioavailability.

A further data set deals with protein target. Description: Reversibility of Binding (compound in solution before and after denaturation or digestion of the target, HPLC-MS/MS). The note with it: for Compound in solution in the denatured or digested state?: after denaturation with 5 M guanidine hydrochloride and digestion with trypsin; for compound in solution following perturbation of the target: perturbed state; for Compound in solution in the native state?: target in excess over compound. How it is done: The following approach was developed to differentiate compounds that form irreversible bonds with their targets, such as acrylamide compounds, from compound that bind reversibly. […] The reactions were then treated with perturbations including both denaturation with 5 M guanidine hydrochloride and digestion with trypsin, disrupting proper folding of the target. […] The concentration of compound in solution was assessed both preceding and following perturbation using high performance liquid chromatography (HPLC) coupled to tandem mass spectrometry.

The mark [2] stands for this setting: 20 mg/kg, ID (intra-duodenal), 20 mg/kg in 15% cyclodextrin, Experiment 1.
[3] abbreviates: 20 mg/kg, ID (intra-duodenal), 20 mg/kg in 15% cyclodextrin, Experiment 2.
The mark [4] stands for this setting: 100 mg/kg, ID 100 mg/kg, 0.5% xanthum gum suspension.
The mark [5] stands for this setting: po, 20 mg/kg, 20 mg/kg in 15% cyclodextrin, Experiment 1.
Setting [6] is: po, 20 mg/kg, 20 mg/kg in 15% cyclodextrin, Experiment 2.
The mark [7] stands for this setting: po, 100 mg/kg, PO 100 mg/kg, 0.5% xanthum gum suspension.

human recombinant Btk, sequence (Q06187 whole entry): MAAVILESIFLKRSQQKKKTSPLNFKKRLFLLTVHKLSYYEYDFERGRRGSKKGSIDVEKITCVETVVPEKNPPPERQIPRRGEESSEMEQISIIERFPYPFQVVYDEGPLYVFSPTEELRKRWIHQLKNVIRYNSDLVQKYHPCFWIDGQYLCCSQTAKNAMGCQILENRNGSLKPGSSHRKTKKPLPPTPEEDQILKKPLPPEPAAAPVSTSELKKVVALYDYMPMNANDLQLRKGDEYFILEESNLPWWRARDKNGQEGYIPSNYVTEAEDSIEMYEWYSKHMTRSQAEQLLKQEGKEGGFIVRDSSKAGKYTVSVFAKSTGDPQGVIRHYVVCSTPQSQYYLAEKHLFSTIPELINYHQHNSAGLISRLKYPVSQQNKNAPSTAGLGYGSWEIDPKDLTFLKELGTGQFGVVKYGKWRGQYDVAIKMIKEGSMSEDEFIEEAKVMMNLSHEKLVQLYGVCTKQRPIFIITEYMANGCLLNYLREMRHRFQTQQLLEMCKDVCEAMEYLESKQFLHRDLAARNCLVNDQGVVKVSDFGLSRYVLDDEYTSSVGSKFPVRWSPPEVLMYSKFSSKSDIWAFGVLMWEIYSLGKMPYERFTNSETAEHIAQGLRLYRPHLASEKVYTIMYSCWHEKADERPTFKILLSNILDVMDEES
Procedure for human recombinant Btk: A Caliper-based kinase assay (Caliper Life Sciences, Hopkinton, Mass.) was used to measure inhibition of Btk kinase activity of a compound of Formula (I). […] The reaction was then terminated with EDTA, final concentration 20 mM and the phosphorylated reaction product was quantified on a Caliper Desktop Profiler (Caliper LabChip 3000). […] This value is presented as the IC50.

In the case of `CC(C)(C)C=C(C#N)C(=O)N1CCC[C@H]1Cn1cc(-c2ccc(Oc3cccc(F)c3F)cc2)c2c(N)ncnc21` [Cpd 173B, (S)-2-(2-((4-amino-5-(4-(2,3-difluorophenoxy)phenyl)-7H-pyrrolo[2,3-d]pyrimidin-7-yl)methyl)pyrrolidine-1-carbonyl)-4,4-dimethylpent-2-enenitrile], the IC50 at human recombinant Btk was determined as 34 nM.
With `CNC(C)(C)C=C(C#N)C(=O)N1CCC[C@@H]1Cn1nc(C2(Oc3ccccc3)C=CC=CC2F)c2c(N)ncnc21` (stereo partly drawn) [Cpd 83A, (R)-2-(2-((4-amino-3-(2-fluoro-1-phenoxyphenyl)-1H-pyrazolo[3,4-d]pyrimidin-1-yl)methyl)pyrrolidine-1-carbonyl)-4-methyl-4-(methylamino)pent-2-enenitrile], the IC50 at human recombinant Btk was 1.4 nM.
As for `CC(C)(C=C(C#N)C(=O)N1CCC[C@H]1Cn1nc(-c2ccc(Oc3ccccc3)cc2F)c2c(N)ncnc21)N1CCOCC1` [Cpd 95B, (S)-2-(2-((4-amino-3-(2-fluoro-4-phenoxyphenyl)-1H-pyrazolo[3,4-d]pyrimidin-1-yl)methyl)pyrrolidine-1-carbonyl)-4-methyl-4-morpholinopent-2-enenitrile], the “% increase” value in data set [1] (20 mg/kg in 15% cyclodextrin, Experiment 1) came to 409%; in data set [1] (20 mg/kg in 15% cyclodextrin, Experiment 2) it was 232%; in data set [1] (100 mg/kg, 0.5% xanthum gum suspension), 220%. Further, the exposure (AUC) was 630 ng·h/mL in data set [1] (setting [2]); 1500 ng·h/mL in data set [1] (setting [3]); 1900 ng·h/mL in data set [1] (setting [4]); 154 ng·h/mL in data set [1] (setting [5]); 647 ng·h/mL in data set [1] (setting [6]); 858 ng·h/mL in data set [1] (setting [7]). Further, the Cmax in data set [1] (setting [2]) is 1400 ng/mL; in data set [1] (setting [3]), 1650 ng/mL; in data set [1] (setting [4]), 870 ng/mL; in data set [1] (setting [5]) it was 145 ng/mL; in data set [1] (setting [6]), 406 ng/mL; in data set [1] (setting [7]) it was 149 ng/mL. Moreover, the bioavailability in data set [1] (setting [2]) is 27%; in data set [1] (setting [3]) it was 64.6%; in data set [1] (setting [4]) it was 16.3%; in data set [1] (setting [5]), 6.6%; in data set [1] (setting [6]) it was 27.8%; in data set [1] (setting [7]), 7.4%.
For the compound `N#CC(=CC1CC1)C(=O)N1CCCC1Cn1nc(-c2ccc(Oc3ccccc3)cc2)c2c(N)ncnc21` (stereo not shown) [Cpd 2, 2-(2-((4-amino-3-(4-phenoxyphenyl)-1H-pyrazolo[3,4-d]pyrimidin-1-yl)methyl)pyrrolidine-1-carbonyl)-3-cyclopropylacrylonitrile], the IC50 at human recombinant Btk amounted to 3.7 nM.
On the same count and under the same terms, the result for `C[C@@H](Cn1nc(-c2ccc(Oc3ccccc3)cc2F)c2c(N)ncnc21)NC(=O)C(C#N)=CC(C)(C)N` [Cpd 195, (S)-4-amino-N-(1-(4-amino-3-(2-fluoro-4-phenoxyphenyl)-1H-pyrazolo[3,4-d]-pyrimidin-1-yl)propan-2-yl)-2-cyano-4-methylpent-2-enamide] reads 6 nM; that for `CC(C)(C)C=C(C#N)C(=O)N1CCCC1Cn1nc(-c2ccc(Oc3ccccc3)cc2)c2c(N)ncnc21` (stereo not shown) [Cpd 10, 2-(2-((4-amino-3-(4-phenoxyphenyl)-1H-pyrazolo[3,4-d]pyrimidin-1-yl)methyl)pyrrolidine-1-carbonyl)-4,4-dimethylpent-2-enenitrile], 5.4 nM; that for `N#CC(=CC1(N)CC1)C(=O)N1CCC[C@@H]1Cn1nc(-c2ccc(Oc3ccccc3)cc2F)c2c(N)ncnc21` [Cpd 90A, (R)-2-(2-((4-amino-3-(2-fluoro-4-phenoxyphenyl)-1H-pyrazolo[3,4-d]pyrimidin-1-yl)methyl)pyrrolidine-1-carbonyl)-3-(1-aminocyclopropyl)acrylonitrile], 52 nM.
In the case of `CNC(C)(C)C=C(C#N)C(=O)N1CCC[C@H]1Cn1nc(-c2ccc(Oc3cccc(F)c3F)cc2F)c2c(N)ncnc21` [Cpd 105B], the IC50 at human recombinant Btk came to 25.5 nM.
As for `N#CC(=CC1CC1)C(=O)N1CCC[C@@H]1Cn1nc(-c2ccc(Oc3ccccc3)cc2F)c2c(N)ncnc21` [Cpd 27A, (R)-2-(2-((4-amino-3-(2-fluoro-4-phenoxyphenyl)-1H-pyrazolo[3,4-d]pyrimidin-1-yl)methyl)pyrrolidine-1-carbonyl)-3-cyclopropylacrylonitrile], in the data set with protein target, the “Compound in solution in the denatured or digested state?” value is on record as “yes” and the “compound in solution following perturbation of the target” value is given as “returned to solution”. In addition, in the data set on protein target (before perturbation), the “Compound in solution in the native state?” value was “no”.
For “(S)-4-amino-2-(2-((4-amino-3-(4-(2,3-difluorophenoxy)-2-fluorophenyl)-1H-pyrazolo[3,4-d]pyrimidin-1-yl)methyl)pyrimidine-1-carbonyl)-4-methylpent-2-enenitrile [Cpd 104B]”, the IC50 on human recombinant Btk worked out at 20 nM.
Regarding `COc1cc(-c2nn(CC3CCCN3C(=O)C(C#N)=CC3CC3)c3ncnc(N)c23)ccc1Oc1ccc(Cl)c(Cl)c1` (stereo not shown) [Cpd 5], the IC50 at human recombinant Btk amounted to 1 nM.
Consider `CC(C)(C)C=C(C#N)C(=O)N1CCC(n2nc(-c3ccc(Oc4ccccc4)cc3)c3c(N)ncnc32)CC1` [Cpd 8, 2-(4-(4-amino-3-(4-phenoxyphenyl)-1H-pyrazolo[3,4-d]pyrimidin-1-yl)piperidine-1-carbonyl)-4,4-dimethylpent-2-enenitrile], for which, at human recombinant Btk, the IC50 amounted to 130 nM.
As to `CC(C)C=C(C#N)C(=O)N1CCC[C@H]1Cn1nc(-c2ccc(Oc3cccc(F)c3F)cc2F)c2c(N)ncnc21` [Cpd 102B, (S)-2-(2-((4-amino-3-(4-(2,3-difluorophenoxy)-2-fluorophenyl)-1H-pyrazolo[3,4-d]pyrimidin-1-yl)methyl)pyrrolidine-1-carbonyl)-4-methylpent-2-enenitrile], on human recombinant Btk, the IC50 turned out to be 6 nM.
Regarding `N#CC(=CC1CC1)C(=O)N1CCC[C@H]1Cn1nc(-c2ccc(Oc3c(F)cccc3F)cc2F)c2c(N)ncnc21` [Cpd 44B, (S)-2-(2-((4-amino-3-(2-fluoro-4-(2,6-difluorophenoxy)phenyl)-1H-pyrazolo[3,4-d]pyrimidin-1-yl)methyl)pyrrolidine-1-carbonyl)-3-cyclopropylacylonitrile], the IC50 at human recombinant Btk is 3 nM.
With `C=CC(=O)N1CCC[C@@H](n2nc(-c3ccc(Oc4ccccc4)cc3)c3c(N)ncnc32)C1` [reference compound], in the data set on protein target, the “Compound in solution in the denatured or digested state?” value was “no” and the “compound in solution following perturbation of the target” value is listed as “depleted from solution”. Moreover, in the data set with protein target (before perturbation), the “depletion of compound from solution in the native (folded) state” value was “depleted from solution” and the “Compound in solution in the native state?” value is given as “no”.

The IC50 is the concentration needed to halve the response being measured. Broadly, the AUC is concentration integrated over time. A higher AUC goes with high exposure. The term Cmax denotes the maximum level reached in the sampled fluid or tissue. The term bioavailability denotes the share of a dose that reaches the circulation, judged against a reference dose that is usually intravenous. A lower bioavailability goes with poor availability.
